Assay results from US12156523B2 (priority 2017, dated 2024).

Test system: Pyricularia oryzae
Assay: whole plant or invertebrate
Type: in vivo
Conditions: soil, read-out: Control value (number of lesions at the second leaf)

Row | SMILES | pest or weed control at 10 µg/mL [%]
1 | CCc1ccc(OC(=O)c2cc(F)nc(F)c2)cc1 [Example 1-186] | ≥ 80
2 | Cc1ccc(NC(=O)c2cc(F)nc(F)c2F)cc1 [Example 1-66] | ≥ 80
3 | C=CCNC(=O)c1cc(F)nc(F)c1 [Example 1-159] | ≥ 80
4 | Cc1cccc(C)c1NC(=O)c1cc(F)nc(F)c1F [Example 1-7] | ≥ 80
5 | Cc1ccc(NC(=O)c2cc(F)nc(F)c2F)cc1I [Example 1-40] | ≥ 80
6 | N#Cc1ccccc1NC(=O)c1cc(F)nc(F)c1F [Example 1-35] | ≥ 80
7 | CCCCCCc1ccc(NC(=O)c2cc(F)nc(F)c2)cc1 [Example 1-181] | ≥ 80
8 | O=C(Nc1ccc(F)c(Cl)c1)c1cc(F)nc(F)c1F [Example 1-29] | ≥ 80
9 | O=C(Nc1ccc(Cl)cc1)c1cc(F)nc(F)c1F [Example 1-54] | ≥ 80
10 | CNC(=O)c1cc(F)nc(F)c1F [Example 1-92] | ≥ 80
11 | C=CCOC(=O)c1cc(F)nc(F)c1 [Example 1-188] | ≥ 80
12 | C#CCOC(=O)c1cc(F)nc(F)c1F [Example 1-119] | ≥ 80
13 | CCOC(=O)c1cc(F)nc(F)c1F [Example 1-117] | ≥ 80
14 | C#CCOC(=O)c1cc(F)nc(F)c1 [Example 1-182] | ≥ 80
15 | CCOC(=O)c1cc(F)nc(F)c1 [Example 1-185] | ≥ 80
16 | O=C(Nc1ccc2c(c1)OCCO2)c1cc(F)nc(F)c1F [Example 1-9] | ≥ 80
17 | O=C(NCCS)c1cc(F)nc(F)c1F [Example 1-79] | ≥ 80
18 | O=C(Sc1ccccc1)c1cc(F)nc(F)c1F [Example 1-130] | ≥ 80
19 | CCCCCCCCNC(=O)c1cc(F)nc(F)c1F [Example 1-96] | ≥ 80
20 | COc1ccc(NC(=O)c2cc(F)nc(F)c2)cc1 [Example 1-200] | ≥ 80

Row | SMILES | pest or weed control at 10 µg/mL [%]
21 | N#Cc1ccc(NC(=O)c2cc(F)nc(F)c2F)cc1 [Example 1-55] | ≥ 80
22 | CCCCCCCCCCCCOC(=O)c1cc(F)nc(F)c1 [Example 1-214] | ≥ 80
23 | CCCOC(=O)c1cc(F)nc(F)c1F [Example 1-123] | ≥ 80
24 | O=C(NCCO)c1cc(F)nc(F)c1F [Example 1-78] | ≥ 80
25 | COc1cc(NC(=O)c2cc(F)nc(F)c2F)cc(OC)c1 [Example 1-25] | ≥ 80
26 | Cc1cccc(NC(=O)c2cc(F)nc(F)c2F)c1 [Example 1-46] | ≥ 80
27 | O=C(Nc1cccnn1)c1cc(F)nc(F)c1F [Example 1-48] | ≥ 80
28 | O=C(Nc1ccc(Cl)c(Cl)c1)c1cc(F)nc(F)c1 [Example 1-155] | ≥ 80
29 | O=C(Nc1cc(Cl)cc(Cl)c1)c1cc(F)nc(F)c1F [Example 1-24] | ≥ 80
30 | Cc1cccc(OC(=O)c2cc(F)nc(F)c2)c1 [Example 1-206] | ≥ 80
31 | O=C1c2ccccc2S(=O)(=O)N1C(=O)c1cc(F)nc(F)c1F [Example 2-5] | ≥ 80
32 | O=C(OC/C=C/c1ccccc1)c1cc(F)nc(F)c1F [Example 1-124] | ≥ 80
33 | COc1cc(NC(=O)c2cc(F)nc(F)c2F)ccc1C [Example 1-63] | ≥ 80
34 | O=C(NCCBr)c1cc(F)nc(F)c1F [Example 1-87] | ≥ 80
35 | CC(=O)Oc1ccccc1COC(=O)c1cc(F)nc(F)c1 [Example 1-145] | ≥ 80
36 | COc1ccc(NC(=O)c2cc(F)nc(F)c2F)cc1OC [Example 1-22] | ≥ 80
37 | O=C(Nc1ccccc1)c1cc(F)nc(F)c1 [Example 1-143] | ≥ 80
38 | O=C(OCc1snc(Cl)c1Cl)c1cc(F)nc(F)c1F [Example 1-104] | ≥ 80
39 | O=C(NC1=NCCS1)c1cc(F)nc(F)c1F [Example 1-12] | ≥ 80
